According to patent US20170183306A1, “CYCLIC COMPOUNDS HAVING A 1,3 DIAMINO-FUNCTIONALITY FOR USE IN THE TREATMENT OF HIV INFECTION” (Universite Paris Descartes, priority 2014, published 2017):
Where a name gives a salt, the structure may show the parent alone.

Columns and labels:
Type in all cases: cell-based
[1] = test system: wild type NL4-3 virus (HIV-1) in HeLa-p4 cells; experiment: HeLa-p4 single-cycle HIV-1 infectivity, beta-galactosidase CPRG test; conditions: Human immunodeficiency virus 1, NL43, HeLaP4, 48 hours after infection, control = NL4-3 virus alone; for activity at 50 µM: read-out: Hela-p4 CPRG 50 μM; for activity at 100 µM: read-out: Hela-p4 CPRG 100 μM
Experimental: (§1) HeLa-p4 cells are HeLa CD4 LTR-LacZ wherein LacZ expression is induced by the trans-activating protein Tat of HIV, making possible the precise quantification of HIV-1 infectivity from a single replication cycle. HeLa-CD4 cells growing exponentially at a density of 1×10^4/mL were placed in 96-well plates and infected the following day with 1 ng of HIV p24 antigen in the presence of different concentrations of compounds. The titles for a single cycle of the viruses were determined 48 hours after infection by quantifying the beta-galactosidase activity in lysates P4 by colorimetric test (CPRG, Promega) based on the cleavage of chlorophenol red-beta-D-galactopyranoside (CPRG) by beta-galactosidase. A cell viability assay measuring the absorbance at […] using the yellow tetrazolium reagent MTS [[…]] (Promega) was carried out.
(§2) For the helap4 cells experiments, the efficacy of the compounds is determined in comparison with control cells containing wild type NL4-3 virus alone (i.e. without any added compound) and is expressed as percentage of control. Then, the viral replication was increased for several compounds at the 50 and 100 μM concentrations with an absence of cytotoxic effects at the same concentrations (MTS test) (table 1).

J-Lat cells = experiment: J-Lat cells, percentage of GFP-positive cells by cytometry; conditions: 24 h, compound alone
Experimental: The J-Lat were grown in RPMI 1640 medium (Gibco-BRL) supplemented with 10% fetal bovine serum, 50 U/ml of penicillin, […] of streptomycin at 37 uC in a humidified 95% air/5% CO2 atmosphere. The cells were plated at 5.105 cells in a 96 well-plate. TNF ? was purchased from Immunosource. SAHA (suberoylanilide hydroxamic acid), prostratin (12-deoxyphorbol-13-acetate) and vorinostat were obtained from Sigma-Aldrich. The J-Lat cells were treated for 24 h with the different compounds alone. The cells were washed twice in PBS, re-suspended in PBS containing 4% paraformaldehyde and fixed for 30 min. Cells were next washed and re-suspended in PBS. The percentage of GFP-positive cells was measured with a LSRFortessa cytometer (Becton-Dickinson) using FACSDiva Version 6.1.3 according to the manufacturer's instructions.
The results for the J-Lat cells experiments are expressed as a percentage of the living fluorescent cells. In this model, some slight increase of viral production measured by fluorescence are quantified (table 1).

HeLa-p4 cells = experiment: Cell viability assay (MTS) on HeLa-p4 cells; conditions: cell viability
Experimental: as §1, §2

SMILES | activity at 50 µM [1] [%] | activity at 100 µM [1] [%] | J-lat 50 μM (J-Lat cells) | J-lat 100 μM (J-Lat cells) | Hela-p4 MTS 50 μM (HeLa-p4 cells) | Hela-p4 MTS 100 μM (HeLa-p4 cells) | activity at 200 µM [1] [%] | Hela-p4 MTS 200 μM (HeLa-p4 cells)
N[C@@H]1C[C@H](N)CN(c2cccc(C(=O)Nc3ccccc3)c2)C1 [ECO02-003-C, 3-(3,5-diaminopiperidin-1-yl)-N-phenylbenzamide] | 140 | 118 | 0.4 percentage of the living fluorescent cells | 0.5 percentage of the living fluorescent cells | 105 | 60 | – | –
CCOc1ccc(CCN2C[C@H](N)C[C@H](N)C2)cc1 [ECO02-005-C, 1-(4-ethoxyphenethyl)piperidine-3,5-diamine] | 127 | 195 | 0.5 percentage of the living fluorescent cells | 0.1 percentage of the living fluorescent cells | 106 | 97 | – | –
N[C@@H]1C[C@H](N)CN(c2ccc(C(=O)N3CCCCCC3)cc2)C1 [ECO02-007-C, azepan-1-yl(4-(3,5-diaminopiperidin-1-yl)phenyl)methanone] | 87 | 98 | 0.6 percentage of the living fluorescent cells | – | 97 | 98 | – | –
COc1ccc(CCN2C[C@H](N)C[C@H](N)C2)cc1 [ECO02-025-C, 1-(4-methoxyphenethyl)piperidine-3,5-diamine] | 90 | 123 | 0.3 percentage of the living fluorescent cells | 0.3 percentage of the living fluorescent cells | 112 | 82 | – | –
N[C@@H]1C[C@H](N)CN(CCCCc2ccccc2)C1 [ECO02-026-C, 1-(4-phenylbutyl)piperidine-3,5-diamine] | 30 | 31 | 65.0 percentage of the living fluorescent cells | – | 26 | 26 | – | –
N[C@@H]1C[C@H](N)CN(CCc2ccccc2)C1 [ECO02-027-C, 1-phenethylpiperidine-3,5-diamine] | 75 | 52 | 8.7 percentage of the living fluorescent cells | 2.3 percentage of the living fluorescent cells | 100 | 45 | – | –
N[C@@H]1C[C@H](N)CN(CCc2ccc(O)cc2)C1 [ECO02-028-C, 4-(2-(3,5-diaminopiperidin-1-yl)ethyl)phenol] | 107 | 89 | 0.3 percentage of the living fluorescent cells | 0.2 percentage of the living fluorescent cells | 100 | 83 | – | –
COc1ccc(-c2ccc(N3C[C@H](N)C[C@H](N)C3)cc2)cc1 [ECO02-029-C, 1-(4′-methoxy-[1,1′-biphenyl]-4-yl)piperidine-3,5-diamine4-(2-((3S,5R)-3,5-diaminopiperidin-1-yl)ethyl)phenol] | 29 | 30 | 2.4 percentage of the living fluorescent cells | – | 25 | 25 | – | –
CC(C)(C)OC(=O)N[C@@H]1C[C@H](NC(=O)OC(C)(C)C)CN(Cc2ccccc2)C1 [ECO02-056-C, di-tert-butyl (1-benzylpiperidine-3,5-diyl)dicarbamate] | 100 | 79 | 1.6 percentage of the living fluorescent cells | – | 67 | 38 | – | –
CC(C)(C)OC(=O)N[C@@H]1C[C@H](NC(=O)OC(C)(C)C)CN(Cc2ccco2)C1 [ECO02-058-C, di-tert-butyl (1-(furan-2-ylmethyl)piperidine-3,5-diyl)dicarbamate] | 110 | 159 | 1.4 percentage of the living fluorescent cells | – | 105 | 88 | 194 | 87
CC(C)(C)OC(=O)N[C@@H]1C[C@H](NC(=O)OC(C)(C)C)CN(Cc2ccc(N3CCCC3)cc2)C1 [ECO02-059-C, di-tert-butyl (1-(4-(pyrrolidin-1-yl)benzyl)piperidine-3,5-diyl)dicarbamate] | 198 | 177 | 0.5 percentage of the living fluorescent cells | – | 95 | 67 | – | –
COc1ccc2c(CN3C[C@H](NC(=O)OC(C)(C)C)C[C@H](NC(=O)OC(C)(C)C)C3)cn(C)c2c1 [ECO02-060-C, di-tert-butyl (1-((6-methoxy-1-methyl-1H-indol-3-yl)methyl)piperidine-3,5-diyl)dicarbamate] | 178 | 221 | 0.6 percentage of the living fluorescent cells | – | 69 | 54 | 217 | 43
CN(C)c1ccc(CN2C[C@H](NC(=O)OC(C)(C)C)C[C@H](NC(=O)OC(C)(C)C)C2)cc1 [ECO02-062-C] | 239 | 269 | 0.7 percentage of the living fluorescent cells | – | 91 | 84 | 401 | 73
N[C@@H]1C[C@H](N)CN(Cc2ccccc2)C1 [ECO02-063-C, 1-benzylpiperidine-3,5-diamine trihydrochloride] | 85 | 107 | 2.9 percentage of the living fluorescent cells | – | 108 | 112 | 193 | 81
COc1cc(CN2C[C@H](N)C[C@H](N)C2)cc(OC)c1 [ECO02-064-C, 1-(3,5-dimethoxybenzyl)piperidine-3,5-diamine] | 109 | 133 | 2.4 percentage of the living fluorescent cells | – | 115 | 107 | – | –
N[C@@H]1C[C@H](N)CN(Cc2ccco2)C1 [ECO02-065-C] | 108 | 125 | 0.5 percentage of the living fluorescent cells | – | 91 | 88 | 205 | 68
N[C@@H]1C[C@H](N)CN(Cc2cccc3cnccc23)C1 [ECO02-068-C, 1-(isoquinolin-5-ylmethyl)piperidine-3,5-diamine trihydrochloride] | 105 | 137 | 0.4 percentage of the living fluorescent cells | – | 85 | 83 | – | –
